Values of other authors in patent US20070088012A1, “Method of treating or preventing type-2 diabetes” (priority 2005, published 2007).

## C[C@]12CC[C@H]3[C@@H](CCC4=CC(=O)CC[C@@]43C)[C@@H]1CC[C@@H]2O [Testosterone, testosterone]
Circulating testosterone
  bound to protein in the blood: 98%
In men
  share bound weakly to albumin: 60%
  share of the binding to sex hormone binding globulin (SHBG): approximately 40%
men
  Metabolic Clearance Rate of Daily Testosterone: ^aMetabolic Clearance Rate of Daily Testosterone = 600 L/day
Reported in the literature
  half-life of testosterone: 10 to 100 min
